Values quoted from earlier work in patent US20230131859A1, “BIOCONVERSION OF OLEUROPEIN” (SOCIETE DES PROUITS NESTLES S.A., priority 2017, published 2023).

How the values were obtained:
[1] = in vivo
[2] = compared with hydroxytyrosol

| Molecule | clearance from the plasma [1] | solubility in the lipophilic phases [2] |
| --- | --- | --- |
| CC=C1C(O)OC=C(C(=O)OC)C1CC(=O)OCCc1ccc(O)c(O)c1 (centres unmarked) [oleuropein aglycone, 3,4-dihydroxyphenylethanol-elenolic acid] | slower clearance from the plasma compared with hydroxytyrosol and oleuropein | – |
| hydroxytyrosol acetate | – | more soluble in the lipophilic phases than hydroxytyrosol |
